Laboratory results published in a compilation of properties of binary mixtures (doi:10.7498/aps.66.196101).

Assay: xn = mol fraction of the nth substance listed
Conditions: 100 kPa

CCCCCC[n+]1ccccc1.N#C[N-]C#N + O
Conditions	electrical conductivity, x1 = 0.9076 [S/m]	electrical conductivity, x1 = 0.9239 [S/m]	electrical conductivity, x1 = 0.9408 [S/m]	electrical conductivity, x1 = 0.9582 [S/m]	electrical conductivity, x1 = 0.9762 [S/m]	viscosity, x1 = 0.9152 [mPa·s]	viscosity, x1 = 0.9306 [mPa·s]	viscosity, x1 = 0.9488 [mPa·s]	viscosity, x1 = 0.9665 [mPa·s]	viscosity, x2 = 0.0151 [mPa·s]
298.15 K	0.554	0.532	0.512	–	–	49.3	–	51.8	53.7	–
303.15 K	0.682	0.66	0.642	0.615	0.588	39.19	40.28	41.67	–	45.48
308.15 K	0.817	–	0.769	0.739	0.711	32.18	33.01	34.12	35.44	37.16
313.15 K	0.997	0.958	0.927	0.889	0.839	26.76	27.39	28.15	29.09	30.51
318.15 K	1.17	1.12	–	1.05	1	–	23.12	23.8	–	25.35
323.15 K	1.34	1.29	1.26	1.22	1.17	18.75	19.06	19.48	20.12	21.03
328.15 K	1.52	–	1.42	1.39	–	–	16.38	–	17.36	18.12
333.15 K	1.73	1.68	1.64	1.59	1.55	13.84	14.07	14.44	14.95	15.67
338.15 K	–	1.9	–	1.8	1.75	–	12.38	12.75	13.17	–

CCCCC[n+]1ccccc1.N#C[N-]C#N + O
Conditions	electrical conductivity, x1 = 0.9199 [S/m]	electrical conductivity, x1 = 0.9356 [S/m]	electrical conductivity, x1 = 0.9518 [S/m]	electrical conductivity, x1 = 0.9685 [S/m]	electrical conductivity, x2 = 0.0142 [S/m]	viscosity, x1 = 0.9199 [mPa·s]	viscosity, x1 = 0.9345 [mPa·s]	viscosity, x1 = 0.9518 [mPa·s]	viscosity, x1 = 0.9674 [mPa·s]	viscosity, x2 = 0.0154 [mPa·s]
298.15 K	0.687	–	0.648	0.63	0.611	41	42.1	43.4	44.7	45.9
303.15 K	0.865	–	0.798	0.761	0.719	33.3	34.1	35.1	36	37
308.15 K	1.08	1.03	–	0.926	0.873	27.4	28.1	–	–	30.4
313.15 K	–	1.19	1.13	1.09	1.03	–	23.49	24.01	24.6	25.4
318.15 K	1.42	1.39	1.33	–	–	19.45	19.85	20.32	20.87	21.39
323.15 K	–	1.6	1.55	–	1.43	–	–	16.27	–	–
328.15 K	1.86	–	1.76	1.7	–	13.96	–	14.48	14.81	–
333.15 K	2.08	2.03	1.97	1.92	1.88	12.2	12.43	12.69	12.99	13.26
338.15 K	2.34	2.29	–	2.17	2.12	10.78	10.9	–	11.32	11.64

CCCC[n+]1ccccc1.N#C[N-]C#N + O
Conditions	electrical conductivity, x1 = 0.9189 [S/m]	electrical conductivity, x1 = 0.9335 [S/m]	electrical conductivity, x1 = 0.9486 [S/m]	electrical conductivity, x1 = 0.9642 [S/m]	electrical conductivity, x2 = 0.0198 [S/m]	viscosity, x1 = 0.9257 [mPa·s]	viscosity, x1 = 0.9415 [mPa·s]	viscosity, x1 = 0.9569 [mPa·s]	viscosity, x1 = 0.9726 [mPa·s]	viscosity, x2 = 0.0111 [mPa·s]
298.15 K	1.03	0.997	0.968	–	0.903	28.23	29.04	–	31.13	32.25
303.15 K	–	–	–	1.08	1.06	23.59	24.03	–	25.61	26.58
308.15 K	1.41	1.38	1.34	1.29	1.26	19.79	20.18	20.75	21.47	22.17
313.15 K	1.65	1.6	1.57	–	1.5	–	17.11	–	18.19	18.73
318.15 K	1.93	–	1.85	1.81	1.76	–	14.67	15	–	16.14
323.15 K	2.32	2.26	2.18	2.11	2.05	12.11	12.4	–	13.13	–
328.15 K	2.51	2.47	2.42	2.36	2.3	–	–	11.08	11.44	11.84
333.15 K	2.85	2.81	–	–	2.65	9.38	9.57	–	10.1	10.43
338.15 K	3.22	3.16	3.1	3.05	2.99	8.34	–	8.65	8.93	9.19

CCCC[n+]1ccn(C)c1.N[C@@H](CO)C(=O)[O-] + O
Conditions	electrical conductivity, x1 = 0.8285 [S/m]	electrical conductivity, x1 = 0.843 [S/m]	electrical conductivity, x1 = 0.8591 [S/m]	electrical conductivity, x1 = 0.8757 [S/m]	electrical conductivity, x1 = 0.8918 [S/m]	viscosity, x1 = 0.852 [mPa·s]	viscosity, x1 = 0.8736 [mPa·s]	viscosity, x1 = 0.894 [mPa·s]	viscosity, x1 = 0.9165 [mPa·s]	viscosity, x1 = 0.9388 [mPa·s]
298.15 K	0.0076	0.0071	0.0068	0.0065	–	5107	5135	–	–	5270
303.15 K	0.0118	0.0111	–	–	0.0097	2975	3000	–	3073	3147
308.15 K	0.0196	0.0183	0.017	0.016	0.0151	1828	1843	1868	1897	1952
313.15 K	0.0293	0.028	0.0261	0.0247	0.0237	1135	1159	–	1231	–
318.15 K	0.0423	0.0402	0.0375	0.0357	0.0341	753	768	790	822	870
323.15 K	0.0597	0.0565	0.0534	0.0511	0.0488	523	532	544	566	597
328.15 K	0.0817	–	–	0.0703	0.0679	–	352	–	388	–
333.15 K	–	0.106	–	0.0958	0.0921	247	255	266	279	304
338.15 K	0.146	0.14	–	0.127	0.122	–	187.4	197	212	229

CCC[n+]1ccccc1.N#C[N-]C#N + O
Conditions	electrical conductivity, x1 = 0.9305 [S/m]	electrical conductivity, x1 = 0.9444 [S/m]	electrical conductivity, x1 = 0.9588 [S/m]	electrical conductivity, x1 = 0.9735 [S/m]	electrical conductivity, x2 = 0.0114 [S/m]	viscosity, x1 = 0.9277 [mPa·s]	viscosity, x1 = 0.9416 [mPa·s]	viscosity, x1 = 0.9559 [mPa·s]	viscosity, x1 = 0.9705 [mPa·s]	viscosity, x2 = 0.0144 [mPa·s]
298.15 K	–	1.44	1.41	1.37	1.34	20.93	21.6	–	–	24.55
303.15 K	–	–	1.61	–	1.53	17.56	18.05	18.78	19.65	20.53
308.15 K	2.03	1.97	1.91	1.86	1.81	15.11	15.43	15.97	16.69	17.49
313.15 K	2.35	2.3	2.23	2.17	–	–	13.31	–	14.28	14.87
318.15 K	2.64	–	2.57	2.52	2.47	11.38	11.63	11.99	–	12.93
323.15 K	2.98	–	2.92	–	2.84	–	9.95	10.29	10.68	11.07
328.15 K	3.42	3.38	3.33	3.29	3.25	8.53	–	–	9.21	9.66
333.15 K	3.88	–	3.77	–	3.68	7.65	7.77	7.97	8.23	8.57
338.15 K	4.31	4.27	–	4.17	4.11	6.91	7.01	–	7.41	7.68

CCCn1cc[n+](C)c1.N[C@@H](CO)C(=O)[O-] + O
Conditions	electrical conductivity, x1 = 0.8651 [S/m]	electrical conductivity, x1 = 0.881 [S/m]	electrical conductivity, x1 = 0.8954 [S/m]	electrical conductivity, x1 = 0.9112 [S/m]	electrical conductivity, x1 = 0.9275 [S/m]	viscosity, x1 = 0.878 [mPa·s]	viscosity, x1 = 0.8933 [mPa·s]	viscosity, x1 = 0.909 [mPa·s]	viscosity, x1 = 0.9253 [mPa·s]	viscosity, x1 = 0.9422 [mPa·s]
298.15 K	0.0244	0.0231	0.0219	0.0204	0.0191	–	2259	–	–	2495
303.15 K	0.0369	0.0356	0.0339	0.0321	0.0301	1399	1414	1439	1477	–
308.15 K	0.0559	0.0538	0.0521	0.0497	0.0469	–	923	942	966	1000
313.15 K	–	0.0775	–	–	0.0685	617	624	633	650	670
318.15 K	0.112	0.109	0.106	–	–	428	–	–	447	462
323.15 K	0.154	–	–	0.14	0.135	300	306	312	322	–
328.15 K	0.204	–	0.194	0.187	0.182	229	231	234	–	245
333.15 K	0.268	0.261	0.256	–	0.241	–	172.3	174.6	178.4	183
338.15 K	0.342	0.333	0.327	–	–	130.5	131.1	132.4	–	137.2

CC[n+]1ccccc1.N#C[N-]C#N + O
Conditions	electrical conductivity, x1 = 0.9285 [S/m]	electrical conductivity, x1 = 0.9414 [S/m]	electrical conductivity, x1 = 0.9545 [S/m]	electrical conductivity, x1 = 0.9681 [S/m]	electrical conductivity, x2 = 0.0181 [S/m]	viscosity, x1 = 0.9353 [mPa·s]	viscosity, x1 = 0.9484 [mPa·s]	viscosity, x1 = 0.9617 [mPa·s]	viscosity, x1 = 0.9754 [mPa·s]	viscosity, x2 = 0.0105 [mPa·s]
298.15 K	2.27	–	2.06	–	1.86	14.98	15.27	15.62	16.02	–
303.15 K	2.46	2.37	–	2.18	2.08	12.98	13.23	13.58	–	14.38
308.15 K	2.75	2.66	–	2.48	2.39	11.41	11.59	11.87	12.17	–
313.15 K	3.05	2.98	2.9	–	2.74	–	10.26	–	10.73	–
318.15 K	3.39	3.33	–	3.18	3.1	8.95	9.11	9.32	9.52	9.75
323.15 K	3.85	3.78	3.7	3.61	3.54	7.77	7.9	8.08	–	8.44
328.15 K	4.34	4.26	4.18	4.08	4.01	7.01	7.13	7.28	–	7.61
333.15 K	–	–	4.7	–	4.48	6.35	6.45	6.58	6.73	6.88
338.15 K	5.47	5.34	5.24	5.11	5.01	–	–	5.98	–	6.22

CCn1cc[n+](C)c1.N[C@@H](CO)C(=O)[O-] + O
electrical conductivity [S/m]
Conditions	303.15 K	308.15 K	313.15 K	318.15 K	323.15 K	328.15 K	333.15 K	338.15 K
x1 = 0.8695	0.102	0.14	0.176	–	0.276	0.348	–	0.526
x1 = 0.8836	0.1	0.138	0.174	–	0.273	–	–	0.522
x1 = 0.8982	0.0982	0.135	0.172	0.218	0.271	0.343	0.429	0.518
x1 = 0.9131	0.0964	–	–	0.216	–	0.341	0.426	0.515
x1 = 0.9275	–	0.13	–	0.213	0.266	0.338	0.423	–
